The test system of one assay is Bacillus subtilis. The assay is described as follows: Antibacterial activity against Bacillus subtilis assessed as zone of inhibition. The format is functional.
The test system of the next assay is Pseudomonas aeruginosa. The assay is described as follows: Antibacterial activity against Pseudomonas aeruginosa assessed as zone of inhibition. The format is functional.
Another assay concerns Staphylococcus aureus. The assay is described as follows: Antibacterial activity against Staphylococcus aureus assessed as zone of inhibition. The format is functional.
For the next assay, the system named is Escherichia coli. Put plainly: Antibacterial activity against Escherichia coli assessed as zone of inhibition. It counts as functional.
The test system of assay [1] is Panel NCI-60 (60 carcinoma cell lines). The assay is described as follows: Cytotoxicity against human Panel NCI-60 (60 carcinoma cell lines). It counts as functional. Further details: concentration or dose not given beside the values.
A further assay deals with HeLa. The assay is described as follows: Cytotoxicity against human HeLa cells by MTT assay. It counts as functional, cell-based.
The next assay concerns SiHa. The assay is described as follows: Cytotoxicity against human SiHa cells by MTT assay. It counts as functional, cell-based. In general terms: Formazan colour is commonly taken as a measure of viable cells.
For a further assay, the system named is MCF7. The assay is described as follows: Cytotoxicity against human MCF7 cells by MTT assay. It counts as functional, cell-based.
A further assay deals with HepG2. Put plainly: Cytotoxicity against human HepG2 cells by MTT assay. It counts as functional, cell-based.

For the compound `NC(=O)c1c(Nc2ccccc2)nn2c(-c3ccc(O)cc3)ccnc12`, the “inhibition zone (IZ)” value with Bacillus subtilis, in the assay with Pseudomonas aeruginosa, in the assay with Staphylococcus aureus and with Escherichia coli was 9 mm each time. In assay [1], `COc1ccc(Nc2nn3c(O)cc(C)nc3c2C(=O)Nc2ccc(C)cc2)c(OC)c1` registered an Activity of 0.5%.

As to `NC(=O)c1c(Nc2ccc(Br)cc2)nn2c(-c3ccc(Br)cc3)ccnc12`, the “inhibition zone (IZ)” value in the assay with Bacillus subtilis, in the assay on Pseudomonas aeruginosa, in the assay with Staphylococcus aureus and with Escherichia coli was 9 mm each time.

Compound `O=C(Nc1ccccc1-c1ccnc2c(C(=O)NCc3ccc(F)cc3)cnn12)c1c(Cl)cc(Cl)cc1Cl` gave an IC50 in the assay on HeLa of 8.7 µM. As to `NC(=O)c1c(Nc2ccc(Br)cc2)nn2c3c(cnc12)CCCCCC3`, the “inhibition zone (IZ)” value with Bacillus subtilis and with Pseudomonas aeruginosa was 9 mm each time.

On to `COc1ccc(Nc2nn3c(C)cc(C)nc3c2C(N)=O)c(OC)c1`, for which the Activity in assay [1] is 0.5%. With `COc1cc(CNc2ccccc2C(=O)N2CCN(C(=O)c3cc(-c4cc(OC)c(OC)c(OC)c4)n4nc(-c5ccccc5)cc4n3)CC2)cc(OC)c1OC`, the IC50 in the assay with HeLa turned out to be 1.51 µM; with SiHa it was 1.91 µM. Consider `O=C(Nc1ccccc1)c1cnn2c(-c3ccc([N+](=O)[O-])cc3)ccnc12`, for which the “inhibition zone (IZ)” value in the assay with Escherichia coli is reported as 11 mm. On to `COc1ccc(Nc2nn3c(-c4ccc(Br)cc4)ccnc3c2C(N)=O)cc1`, for which the values for the IC50 in the assay with MCF7 and in the assay on HepG2 were 65.3 µM and 70.3 µM, respectively. On to `CNc1nn2c(-c3ccccc3)ccnc2c1C(N)=O`, for which the “inhibition zone (IZ)” value in the assay with Bacillus subtilis and in the assay with Pseudomonas aeruginosa was 9 mm each time.

For the compound `COC(=O)c1cnc2c(C(=O)Nc3ccccc3)cnn2c1C`, the “inhibition zone (IZ)” value with Staphylococcus aureus came to 19 mm.

Compound `COc1ccc(NC(=O)c2c(Nc3ccc(OC)cc3OC)nn3c(O)cc(-c4ccccc4)nc23)c(OC)c1` yielded an Activity in assay [1] of 0.5%. As for `COc1ccc(-c2cc(C(=O)N3CCN(C(=O)c4ccccc4NCc4cc(OC)c(OC)c(OC)c4)CC3)nc3cc(-c4ccccc4)nn23)cc1`, in the assay with HeLa, inhibition was half-maximal at 1.89 µM (IC50). Take `CC[C@H](CO)Nc1nc(NCc2ccccc2)c2ncn(C(C)C)c2n1` [SELICICLIB]: the IC50 in the assay with HeLa amounted to 2.2 µM; with SiHa, 2.69 µM. With `NC(=O)c1c(Nc2ccc(Br)cc2)nn2c3c(cnc12)CCCC3`, the “inhibition zone (IZ)” value in the assay with Bacillus subtilis and with Pseudomonas aeruginosa was 9 mm in each case. In the case of `Cc1ccc(Nc2nn3c(-c4ccc(Br)cc4)ccnc3c2C(N)=O)cc1`, the IC50 in the assay on HepG2 was 72.2 µM. `COc1ccc(-c2cc(C(=O)N3CCN(C(=O)c4ccccc4NCc4cccs4)CC3)nc3cc(-c4ccccc4)nn23)cc1OC`: the IC50 stood at 1.99 µM in the assay with HeLa and 1.81 µM in the assay with SiHa. In turn, `COc1ccc(Nc2nn3c(-c4ccccc4)cc(-c4ccccc4)nc3c2C(=O)Nc2ccc(C)cc2)c(OC)c1` registered an Activity in [1] of 0.5%. Regarding `COc1ccc(Nc2nn3c(O)cc(-c4ccccc4)nc3c2C(N)=O)c(OC)c1`, the Activity in [1] is on record as 0.5%. Same read-out and setting: with `COc1ccc(Nc2nn3c(O)cc(C)nc3c2C(=O)Nc2ccccc2)c(OC)c1` the figure was 0.5%.

In [1], `COc1ccc(NC(=O)c2c(Nc3ccc(OC)cc3OC)nn3c(O)cc(C)nc23)c(OC)c1` returned an Activity of 0.5%. As for `Cc1cc(-n2ncc3c(=O)n(-c4ccccc4)cnc32)n2ncc(C#N)c2n1`, the “inhibition zone (IZ)” value with Bacillus subtilis turned out to be 14.3 mm; with Escherichia coli, 13.1 mm.

For `COc1ccc(-c2ccnc3c(C(=O)Nc4ccccc4)cnn23)cc1`, the “inhibition zone (IZ)” value with Escherichia coli stood at 10 mm.

For `NC(=O)c1c(Nc2ccc(Br)cc2)nn2c(-c3ccccc3)ccnc12`, the “inhibition zone (IZ)” value in the assay on Bacillus subtilis, in the assay on Pseudomonas aeruginosa and in the assay with Escherichia coli was 9 mm in each case. In assay [1], `COc1ccc(NC(=O)c2c(Nc3ccc(OC)cc3OC)nn3c(C)cc(C)nc23)c(OC)c1` had an Activity of 0.5%. Regarding `NC(=O)c1c(Nc2ccc(Cl)cc2)nn2c(-c3ccc(Cl)cc3)ccnc12`, the IC50 with HepG2 came out at 72.2 µM. `COc1ccc(-c2cc(C(=O)N3CCN(C(=O)c4ccccc4NCc4ccco4)CC3)nc3cc(-c4ccccc4)nn23)cc1OC`: the IC50 with HeLa came to 1.56 µM. For the compound `COc1ccc(Nc2nn3c(O)cc(C)nc3c2C(N)=O)c(OC)c1`, the Activity in assay [1] is recorded as 0.5%. Still for that read-out and setting: to `COc1ccc(Nc2nn3c(O)cc(-c4ccccc4)nc3c2C(=O)Nc2ccccc2)c(OC)c1` belongs 0.5%. `NC(=O)c1c(Nc2ccc(Br)cc2)nn2c(-c3ccc(Cl)cc3)ccnc12`: the “inhibition zone (IZ)” value with Staphylococcus aureus is reported as 9 mm.

For `NC(=O)c1c(Nc2ccccc2)nn2c(-c3ccc(Cl)cc3)ccnc12`, the IC50 with MCF7 was 63.2 µM; in the assay with HepG2 it was 86.6 µM. Further, the “inhibition zone (IZ)” value with Bacillus subtilis and in the assay on Pseudomonas aeruginosa was 9 mm in each case. `COc1ccc(-c2cc(-c3nn4cc(-c5ccncc5)cnc4c3S(=O)(=O)c3ccc([N+](=O)[O-])cc3)on2)cc1`: the IC50 with SiHa worked out at 2.1 µM. `NC(=O)c1c(Nc2ccc(Br)cc2)nn2c3c(cnc12)CCC3`: the figures for the “inhibition zone (IZ)” value in the assay on Bacillus subtilis, in the assay on Pseudomonas aeruginosa and in the assay on Escherichia coli were 12 mm, 9 mm and 11 mm, respectively.

`COc1ccc(Nc2nn3c4c(cnc3c2C(=O)Nc2ccc(Cl)cc2)C(=O)CC(C)(C)C4)cc1` showed an IC50 in the assay on HepG2 of 72.2 µM.

For `NC(=O)c1c(Nc2ccccc2)nn2c3c(cnc12)CCC3`, the “inhibition zone (IZ)” value in the assay on Bacillus subtilis and with Pseudomonas aeruginosa was 9 mm throughout. Consider `COc1ccc(Nc2nn3c(C)cc(C)nc3c2C(=O)Nc2ccc(C)cc2)c(OC)c1`, for which the Activity in assay [1] stood at 0.5%. Take `CCOC(=O)c1cnc2c(C(=O)Nc3ccccc3)cnn2c1C`: in the assay with Escherichia coli, the “inhibition zone (IZ)” value turned out to be 10 mm. In the case of `CCNc1nn2c(-c3ccc(Br)cc3)ccnc2c1C(N)=O`, the “inhibition zone (IZ)” value in the assay with Staphylococcus aureus turned out to be 9 mm. As to `COc1ccc(-c2cc(-c3nn4cc(-c5ccncc5)cnc4c3S(=O)(=O)c3ccc(OC)cc3)on2)cc1`, the IC50 with SiHa came out at 1.77 µM. For the compound `NC(=O)c1c(Nc2ccccc2)nn2c(-c3ccc(Br)cc3)ccnc12`, the IC50 in the assay on MCF7 was 64 µM; in the assay with HepG2 it was 76.2 µM. For the same compound, the “inhibition zone (IZ)” value in the assay on Bacillus subtilis was 9 mm. In the case of `Nc1nn2c(-c3ccc(S(=O)(=O)c4ccccc4)cc3)ccnc2c1/N=N/c1ccccc1`, the “inhibition zone (IZ)” value with Bacillus subtilis was 26.5 mm. As to `COc1ccc(-c2cc(-c3nn4cc(-c5ccncc5)cnc4c3S(=O)(=O)c3cc(OC)cc(OC)c3)on2)cc1`, the IC50 in the assay on SiHa turned out to be 0.99 µM. As to `COc1ccc(Nc2nn3c(-c4cccs4)ccnc3c2C(N)=O)cc1`, in the assay with HepG2, the IC50 came to 72.2 µM. As for `CC1(C)CC(=O)c2cnc3c(C(N)=O)c(Nc4ccccc4)nn3c2C1`, the IC50 was found to be 66.5 µM with MCF7 and 77.6 µM in the assay with HepG2. As for `COc1ccc(Nc2nn3c(N)c(C#N)c(-c4cc(OC)ccc4OC)nc3c2C(=O)Nc2ccc(Cl)cc2)cc1`, the figures for the “inhibition zone (IZ)” value with Bacillus subtilis and in the assay with Escherichia coli were 21 mm and 16 mm, respectively. Compound `Nc1nc2c(/N=N/c3ccc(C(F)(F)F)cc3)c(N)nn2c(N)c1/N=N/c1nccs1` yielded an IC50 in the assay with HepG2 of 4.1 µg/mL. As to `COc1cc(-c2cc(C(=O)N3CCN(C(=O)c4ccccc4NCc4cccc5c4OCO5)CC3)nc3cc(-c4ccccc4)nn23)cc(OC)c1OC`, the half-inhibitory concentration (IC50) in the assay on HeLa is 1.76 µM. As to `O=C(Nc1ccccc1-c1ccnc2c(C(=O)NCc3ccc(F)cc3)cnn12)c1ccc(Cl)c(Cl)c1`, inhibition in the assay on HeLa was half-maximal at 9.6 µM (IC50). As to `COc1ccc(Nc2nn3c(N)c(C#N)c(-c4cccc(C)c4)nc3c2C(=O)Nc2ccccc2)cc1`, the “inhibition zone (IZ)” value in the assay on Bacillus subtilis is 20 mm; in the assay on Escherichia coli it was 16 mm. `COc1ccc(NC(=O)c2c(Nc3ccc(OC)cc3OC)nn3c(-c4ccccc4)cc(-c4ccccc4)nc23)c(OC)c1` had an Activity in [1] of 0.5%. Consider `NC(=O)c1c(Nc2ccccc2)nn2c(-c3ccc(F)cc3)ccnc12`, for which the midpoint of inhibition with HepG2, the IC50, lay at 72.2 µM. For the compound `O=C(c1cc(-c2ccccc2)n2nc(-c3ccccc3)cc2n1)N1CCN(C(=O)c2ccccc2NCc2cccc3c2OCO3)CC1`, the IC50 in the assay on HeLa is 1.95 µM. In the case of `COc1ccc(Nc2nn3c(O)cc(-c4ccccc4)nc3c2C(=O)Nc2ccc(C)cc2)c(OC)c1`, the Activity in [1] stood at 0.5%.

Turning to `O=C(Nc1ccccc1)c1cnn2c(-c3ccc(Cl)cc3)ccnc12`, the “inhibition zone (IZ)” value in the assay on Staphylococcus aureus worked out at 17 mm; in the assay on Escherichia coli it was 10 mm. As to `O=C(Nc1ccccc1)c1cnn2c(-c3ccccc3)ccnc12`, the “inhibition zone (IZ)” value in the assay on Staphylococcus aureus and in the assay on Escherichia coli was 10 mm each time. The compound `COc1ccc(-c2cc(C(=O)N3CCN(C(=O)c4ccccc4NCc4cccc5c4OCO5)CC3)nc3cc(-c4ccccc4)nn23)cc1` returned an IC50 in the assay on HeLa of 1.95 µM. With `Cc1ccc(Nc2nn3c(-c4ccc(Cl)cc4)ccnc3c2C(N)=O)cc1`, in the assay on HepG2, the midpoint of inhibition, the IC50, lay at 72.2 µM. Take `CCOC(=O)c1cnn(-c2cc(C)nc3c(C#N)cnn23)c1N`: the “inhibition zone (IZ)” value with Bacillus subtilis is 17.1 mm; in the assay on Escherichia coli, 15.4 mm. For the compound `COc1ccc(-c2ccnc3c(C(N)=O)c(Nc4ccc(Cl)cc4)nn23)cc1`, the IC50 with HepG2 was found to be 72.2 µM. `O=C(Nc1ccccc1-c1ccnc2c(C(=O)NCc3ccccc3Cl)cnn12)c1ccc(Cl)c(Cl)c1` came in with an IC50 in the assay with HeLa of 9.1 µM.

Consider `COc1ccc(Nc2nn3c(C)cc(C)nc3c2C(=O)Nc2ccccc2)c(OC)c1`, for which the Activity in [1] was 0.5%. `COc1ccc(-c2cc(C(=O)N3CCN(C(=O)c4ccccc4NCc4ccco4)CC3)nc3cc(-c4ccccc4)nn23)cc1`: the IC50 with HeLa came out at 1.73 µM. On the same count and under the same terms, to `COc1cc(CNc2ccccc2C(=O)N2CCN(C(=O)c3cc(-c4ccc(C)cc4)n4nc(-c5ccccc5)cc4n3)CC2)cc(OC)c1OC` belongs 1.81 µM. In turn, `NC(=O)c1c(Nc2ccc(Cl)cc2)nn2c(-c3ccc(F)cc3)ccnc12` displayed an IC50 in the assay with HepG2 of 72.2 µM. In the assay on SiHa, `O=C(c1cc(-c2ccccc2)n2nc(-c3ccccc3)cc2n1)N1CCN(C(=O)c2ccccc2NCc2ccco2)CC1` gave an IC50 of 1.93 µM. Consider `NC(=O)c1c(Nc2ccc(Cl)cc2)nn2c(-c3ccccc3)ccnc12`, for which inhibition in the assay on HepG2 was half-maximal at 72.2 µM (IC50).

`COc1ccc(Nc2nn3c(-c4ccccc4)cc(-c4ccccc4)nc3c2C(=O)Nc2ccccc2)c(OC)c1` gave an Activity in assay [1] of 0.5%. In the case of `NC(=O)c1c(Nc2ccc(Cl)cc2)nn2c(-c3ccc(Br)cc3)ccnc12`, 72.2 µM corresponded to half-maximal inhibition in the assay with HepG2 (IC50).

As usually defined, the IC50 is the concentration that gives 50% inhibition.

The values above are taken from ChEMBL document CHEMBL5241120, “Insights into the medicinal chemistry of heterocycles integrated with a pyrazolo[1,5-a]pyrimidine scaffold” (RSC Med Chem, 2022).
